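At the GI50, growth is halved. Definition used: TGI = concentration required for complete inhibition of growth.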
Columns and labels:
Assay in all cases: NCI-60 cell line screen, 384-well format
A498 renal = system: A498 renal
U251 glioblastoma = system: U251 glioblastoma
786-0 renal = system: 786-0 renal
HCC-2998 colon = system: HCC-2998 colon
HOP-92 NSCLC = system: HOP-92 NSCLC
UACC-257 melanoma = system: UACC-257 melanoma
SF-268 CNS = system: SF-268 CNS
BT-549 breast = system: BT-549 breast
IGROV1 ovarian = system: IGROV1 ovarian
SN12C renal = system: SN12C renal
RXF 393 renal = system: RXF 393 renal
NCI-H322M lung = system: NCI-H322M lung
HL-60(TB) leukemia = system: HL-60(TB) leukemia

`O=C1Nc2ccc(I)cc2/C1=C/c1cc(Br)c(O)c(Br)c1` showed a GI50 (A498 renal) of 16 µM, a TGI (A498 renal) of 30.7 µM and a GI50 (U251 glioblastoma) of 11.7 µM. The TGI (U251 glioblastoma) was 24.3 µM, the GI50 (786-0 renal) was 13.9 µM and the TGI (786-0 renal) was 27.4 µM. For the same compound, the GI50 (HCC-2998 colon) was 22.8 µM, the TGI (HCC-2998 colon) was 38 µM and the GI50 (HOP-92 NSCLC) was 15.6 µM. For the same compound, the TGI (HOP-92 NSCLC) was 31.9 µM, the GI50 (UACC-257 melanoma) was 14.9 µM and the TGI (UACC-257 melanoma) was 33.3 µM. The GI50 (SF-268 CNS) was 16.3 µM, the TGI (SF-268 CNS) was 52 µM and the GI50 (BT-549 breast) was 11.7 µM. For the same compound, the TGI (BT-549 breast) was 26.8 µM, the GI50 (IGROV1 ovarian) was 18.6 µM and the TGI (IGROV1 ovarian) was 41 µM. It also gave a GI50 (SN12C renal) of 21.6 µM, a TGI (SN12C renal) of 48.5 µM and a GI50 (RXF 393 renal) of 12.6 µM. For the same compound, the TGI (RXF 393 renal) was 25.5 µM, the GI50 (NCI-H322M lung) was 15.7 µM and the TGI (NCI-H322M lung) was 39.6 µM. The GI50 (HL-60(TB) leukemia) was 11.3 µM and the TGI (HL-60(TB) leukemia) was 23.4 µM.

Source: PubChem BioAssay (NCI)
